# Data reported in ChEMBL document CHEMBL1177754, “Onionin A from Allium cepa inhibits macrophage activation” (J Nat Prod, 2010).
# The source made the active and inactive calls. The rule behind the calls is not given here.
# Tested on: Macrophage
# Test: Inhibition of CD163 expression in human monocyte-derived macrophages at 30 uM for 24 hrs treated before IL10 challenge for 2 days by cell-ELISA
# Assay type: functional, cell-based
smiles,measurement,value
C/C=C/[C@H]1[C@H](C)[C@@H](C)[C@@H]([SH+][O-])[S+]1[O-] (stereo partly specified),Activity,Active
